We go through four compounds from article PMC5768801, “The PII signaling protein from red algae represents an evolutionary link between cyanobacterial and Chloroplastida PII proteins” (Scientific Reports, 2018).

The target of assay [1] is PpPII (Porphyra purpurea, UniProt P51254). Kind of assay: ITC binding of small effector molecules to red algal PpPII. The method, then:
(§1) To gain additional insights into the ligand binding properties of PpPII in comparison to cyanobacterial and chloroplastid PII proteins, isothermal titration calorimetry (ITC) experiments were performed using highly purified Strep-tagged or His-tagged recombinant PpPII, SyPII, CrPII, and PhyscoPII proteins (Supplementary Fig. S1) with different protein/ligand/ concentrations to determine the best fitting conditions of the binding model. The titration experiments were repeated with different protein preparations to confirm the reproducibility of the results. The raw isothermal data were fitted into one-binding site as well as three-sequential binding sites to define the best fitting model. Fitting using a one binding site model states an average Kd value for all available binding sites and the mean of the stoichiometry of bound ligands.
(§2) The ITC experiments were done using a VP-ITC microcalorimeter (MicroCal, LCC). All details for determination of binding constants for small effector molecules using ITC are fully described in the supplementary information. Heat isotherms of the dilution of the ligand in the cell buffer were collected in a blank run for each experiment in the absence of protein. The binding isotherms were calculated from received data and fitted to one-site and three-sequential binding sites models using the MicroCal ORIGIN software (Northampton) as described. All titrations were performed in duplicates with different purification batches of recombinant PII proteins. The association binding constant (Ka) was generated from the software by de-convolution and curve fitting. For calculation of dissociation constant (Kd), the Ka value was inversed.
(§3) Supplementary Information […]
(§4) Determination of Binding Constants for Small Effector Molecules using Isothermal […]
(§5) The binding of the small effector molecules to the recombinant PII proteins was tested using isothermal titration calarmity (ITC); VP-ITC microcalorimeter (MicroCal). All titrations were performed on 20°C using […] injection syringe with injection 6 µl or 10 µl of the tested ligands for 45 or 29 times, respectively into the cell (1.4 ml) with continuous stirring at 155 rpm. All tested ligands were high grade, prepared freshly in the same buffer of the protein and purchased from Sigma-Aldrich. Heat isotherms for the dilution of the ligand in the cell buffer were collected in a blank run in the absence of protein. The received calorimetric data were analyzed using MicroCal Origin software and fitted into one-site and three-sequential binding sites models, as indicated by the manufacture for calculation of binding isotherms9. For data reproducibility, the titrations were performed in duplicates with different purification batches of recombinant PII proteins. The association binding constant (Ka) was generated from the software by de-convolution and curve fitting. For calculation of dissociation constant (Kd), the Ka value was inversed.
For determination the binding isotherms of red algal PpPII protein, a buffer system composed of […]
used. For determination ATP and ADP binding isotherms upon the binding to PpPII protein, His- […]
against 2 mM ATP or 2 mM ADP. For determination of ATP and ADP binding isotherms in […]
concentration) was titrated against 0.5 mM of ATP or 1 mM ADP, respectively. However, for […]
of 1 mM of ATP or 1 mM ADP. […]

Assay [2] addresses CrPII. Kind of assay: ITC binding of small effector molecules to green algal CrPII. On the set-up: species or system Chlamydomonas reinhardtii. The method, then: as §1, §2, §3, §4
as §5, with “inversed. […]” for “inversed.”

Assay [3] concerns the target T1, SyPII (Synechococcus elongatus, UniProt P0A3F4).
T1 construct: Strep-tag; made in house
The conditions noted are these: in presence ADP, given in parentheses for comparison; cited from earlier work.

Assay [4] concerns the target T1, SyPII. The assay is described as follows: ITC binding of small effector molecules to cyanobacterial SyPII. The arrangement: species or system Synechococcus elongatus PCC 7942. The method, then: as §1, §2, §3, §4
as §5, with “inversed. […]” for “inversed.”
For determination the binding isotherms of cyanobacterial SyPII protein, a strep-tagged recombinant protein (20 µM trimeric concentration) was overexpressed and used as described previously9, 15, in a buffer composed of 10 mM Hepes-NaOH, 50 mM KCl, 50 mM NaCl, and 1

Assay [5] deals with PhyscoPII. Kind of assay: ITC binding of small effector molecules to plant-moss PhyscoPII. The arrangement: species or system Physcomitrella patens. The method, then: as §1, §2, §3, §4, §5
5 mM MgCl2, 0.5 mM EDTA, and 10% glycerol (pH 7.6). […]
For determination the binding isotherms of plant-moss PhyscoPII protein, a strep-tagged recombinant protein (5 or 6 µM trimeric concentration) was used in system composed of 20 mM

The target of assay [6] is T2, ScNAGK (Synechocystis sp., UniProt P73326).
T2 sequence (P73326 1-297): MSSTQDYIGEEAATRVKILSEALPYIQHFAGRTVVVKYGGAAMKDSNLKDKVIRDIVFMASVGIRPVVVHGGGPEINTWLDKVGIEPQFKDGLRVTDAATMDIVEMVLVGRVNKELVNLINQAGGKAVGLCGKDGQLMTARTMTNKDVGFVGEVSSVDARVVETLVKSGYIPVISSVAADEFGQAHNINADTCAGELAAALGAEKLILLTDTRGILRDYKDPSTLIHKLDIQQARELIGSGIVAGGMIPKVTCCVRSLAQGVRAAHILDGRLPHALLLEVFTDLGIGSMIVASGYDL
Kind of assay: Coupled NAGK activity assay, ScNAGK. It is filed as biochemical, Synechocystis sp. PCC 6803.
Procedure: (§6) The assess the activity of ScNAGK was measured with an enzyme assay, in which the ADP production was coupled to the NADH oxidation by the auxiliary enzymes pyruvate kinase and lactate dehydrogenase according to previously described procedure[32],[50]. […] The oxidation reaction of NADH was recorded for 10 min using spectrophotometer (SPECORD 210 PLUS, Analytik Jena AG) at 340 nm. […] The NADH molar absorption coefficient is 6178 L mol^−1 cm^−1 for at 340 nm, which was used for calculation. […] From the velocity slopes, the enzymatic constants Km, Kcat and IC50 were calculated using the Graph-Pad Prism software (GraphPad Software, USA).

Assay [7] deals with PpPII-ScNAGK complex (Porphyra purpurea, UniProt P51254). Kind of assay: Coupled NAGK activity assay, ScNAGK with PpPII. It is filed as biochemical, Synechocystis sp. PCC 6803; Porphyra purpurea. The note with it: ScNAGK in the presence of PpPII, fixed 10 mM ATP.
Sequence of PpPII-ScNAGK complex (P51254 whole entry, one chain of several): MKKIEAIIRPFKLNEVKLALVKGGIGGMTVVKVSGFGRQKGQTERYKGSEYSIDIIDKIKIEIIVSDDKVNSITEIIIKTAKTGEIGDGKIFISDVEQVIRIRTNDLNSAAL
Procedure: as §6
[8] abbreviates: titrant alone, read-out: Average Kd (one-site binding model).
Setting [9] is: titrant alone, read-out: Kd1 (three-sites binding model).
Setting [10] is: titrant alone, read-out: Kd2 (three-sites binding model).
Where [11] appears, read: titrant alone, read-out: Kd3 (three-sites binding model).

Values joined by “and” are separate entries in the source; they are usually repeats but may differ in a detail not shown here. Equal entries are not always repeated. “Also recorded” adds a separate entry of the source. Where two headings read alike, the source gives them in different places.

T1 sequence (P0A3F4 whole entry): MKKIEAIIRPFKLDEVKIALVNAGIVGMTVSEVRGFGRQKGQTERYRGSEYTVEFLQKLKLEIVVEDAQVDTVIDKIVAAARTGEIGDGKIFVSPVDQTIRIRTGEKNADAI
Sequence of PpPII (P51254 whole entry): as the sequence (P51254 whole entry, one chain of several) above

Regarding `O=C(O)CCC(=O)C(=O)O` [2-OG, 2-oxoglutarate], the “N, number of calculated binding sites (one-site binding model)” value in assay [1] (in presence ADP (1 mM)) is recorded as “No binding”; in assay [1] (in presence ATP (1 mM)), 1.0; in assay [3], “(No binding)”; in assay [4] (in presence ATP (2 mM)), 1.4. In addition, the “Average Kd (one-site binding model)” value in assay [2] (in presence ADP (2 mM)) is “never observed binding; also recorded: No binding”; in assay [5] (in presence ATP (1 mM)), “unable to detect any binding; also recorded: No binding”. Further, the “Kd1 (three-sites binding model)” value in assay [2] (in presence ADP (2 mM)) and in assay [5] (in presence ATP (1 mM)) was “No binding” throughout. Moreover, the “Kd2 (three-sites binding model)” value in assay [2] (in presence ADP (2 mM)) and in assay [5] (in presence ATP (1 mM)) was “No binding” throughout. The “Kd3 (three-sites binding model)” value in assay [2] (in presence ADP (2 mM)) and in assay [5] (in presence ATP (1 mM)) was “No binding” throughout. Further, the Kd is 15 ± 5.4 µM in assay [2] (in presence ATP (2 mM), read-out: Average Kd (one-site binding model)); 4.2 ± 0.7 µM in assay [2] (in presence ATP (2 mM), read-out: Kd1 (three-sites binding model)); 21.3 ± 11 µM in assay [2] (in presence ATP (2 mM), read-out: Kd2 (three-sites binding model)); 45.5 ± 19.8 µM in assay [2] (in presence ATP (2 mM), read-out: Kd3 (three-sites binding model)).
Turning to `Nc1ncnc2c1ncn2[C@@H]1O[C@H](COP(=O)(O)OP(=O)(O)OP(=O)(O)O)[C@@H](O)[C@H]1O` [ATP], the Kd in assay [1] (Average Kd (one-site binding model), in presence 2-OG (1 mM)) was 0.2 ± 0.3 µM; in assay [1] (Average Kd (one-site binding model), titrant alone), ~22 µM and 22 µM; in assay [1] (Kd1 (three-sites binding model), in presence 2-OG (1 mM)), 1.4 ± 1.8 µM; in assay [1] (Kd1 (three-sites binding model), titrant alone) it was 0.5 ± 0.2 µM; in assay [1] (Kd2 (three-sites binding model), in presence 2-OG (1 mM)), 1 ± 0.9 µM; in assay [1] (Kd3 (three-sites binding model), in presence 2-OG (1 mM)), 83.9 ± 62.4 µM. The Kd in assay [1] (Kd3 (three-sites binding model), titrant alone) was found to be 142 ± 80.8 µM; in assay [1] (read-out: Kd2 (three-sites binding model), titrant alone), 18.7 ± 9.2 µM; in assay [2] (in presence 2-OG (2 mM), read-out: Average Kd (one-site binding model)) it was 35.8 ± 1.6 µM; in assay [2] (in presence 2-OG (2 mM), read-out: Kd1 (three-sites binding model)), 5.8 ± 5.8 µM; in assay [2] (in presence 2-OG (2 mM), read-out: Kd2 (three-sites binding model)) it was 53.1 ± 58.3 µM; in assay [2] (in presence 2-OG (2 mM), read-out: Kd3 (three-sites binding model)), 61.6 ± 9.7 µM. The Kd in assay [4] (in presence 2-OG (1 mM), read-out: Average Kd (one-site binding model)) was found to be 2.7 ± 0.1 µM; in assay [4] (in presence 2-OG (1 mM), read-out: Kd1 (three-sites binding model)), 0.5 ± 0.5 µM; in assay [4] (in presence 2-OG (1 mM), read-out: Kd2 (three-sites binding model)) it was 3 ± 1.7 µM; in assay [4] (in presence 2-OG (1 mM), read-out: Kd3 (three-sites binding model)) it was 325 ± 171 µM; in assay [4] (setting [8]), 43.3 ± 37.7 µM; in assay [4] (setting [9]), 7.5 ± 7.3 µM. In addition, the Kd in assay [4] (setting [10]) came out at 15.9 ± 12.2 µM; in assay [4] (setting [11]) it was 85.4 ± 74.6 µM; in assay [5] (in presence 2-OG, read-out: Average Kd (one-site binding model)), 17.6 ± 7.5 µM; in assay [5] (in presence 2-OG, read-out: Kd1 (three-sites binding model)) it was 8 ± 6 µM; in assay [5] (in presence 2-OG, read-out: Kd2 (three-sites binding model)) it was 16.3 ± 11.4 µM; in assay [5] (in presence 2-OG, read-out: Kd3 (three-sites binding model)) it was 129 ± 128 µM. Further, the Kd in assay [5] (setting [8]) came out at 26.8 ± 10.5 µM; in assay [5] (setting [9]) it was 5.7 ± 1.4 µM; in assay [5] (setting [10]), 13.6 ± 7.2 µM; in assay [5] (setting [11]), 48.2 ± 29.3 µM. Further, the “N, number of calculated binding sites (one-site binding model)” value in assay [1] (in presence 2-OG (1 mM)) was 1.0; in assay [1] (titrant alone, per PII trimer) it was 2.5; in assay [4] (in presence 2-OG (1 mM)), 1.8; in assay [4] (titrant alone), 3.2. The “Average Kd (one-site binding model)” value in assay [2] (titrant alone) is “unable to notice any binding; also recorded: No binding”. For the same compound, the “Kd1 (three-sites binding model)” value in assay [2] (titrant alone) is given as “No binding”. Besides, the “Kd2 (three-sites binding model)” value in assay [2] (titrant alone) is “No binding”. Besides, in assay [2] (titrant alone), the “Kd3 (three-sites binding model)” value is “No binding”.
The Km is the concentration of substrate that gives half-maximal velocity. For `CC(=O)N[C@@H](CCC(=O)O)C(=O)O` [NAG, N-acetyl glutamate], the Kcat in assay [6] (free ScNAGK, NAG variable substrate, fixed 10 mM ATP) came to 8.93 ± 1.40 s⁻¹; in assay [7] (NAG variable substrate), 10.02 ± 1.11 s⁻¹. For the same compound, the Km in assay [6] (read-out: Km value for N-acetyl glutamate (NAG), free ScNAGK, fixed 10 mM ATP) was 16.2 ± 2.14 mM; in assay [7] (read-out: apparent Km for NAG) it was 4.25 ± 0.36 mM.
`N=C(N)NCCC[C@H](N)C(=O)O` [arginine]: the IC50 in assay [6] (read-out: Feedback inhibition of ScNAGK, half maximal inhibitory concentration (IC50)) was found to be 6.2 µM.
